Common to all, as to format: binding
Test [1] has as its target T1, RPD1520 (Rhodopseudomonas pseudopalustris, UniProt A0A1H8UI63). The test can be described thus: intrinsic tryptophan fluorescence quenching. To be noted: excitation 275 nm; single-site fit; unit of KD printed as M^-1 (M meant).
In the next test the target is BLR7848 (Bradyrhizobium diazoefficiens, UniProt Q89CE9). Briefly: fluorescence thermal shift. The settings on record: 10 μM protein, 1000 μM ligand; HEPES pH 7.5.
The target in another test is RPD1889 (Rhodopseudomonas palustris, UniProt Q139W5). Briefly: fluorescence thermal shift. The settings on record: 10 μM protein, 1000 μM ligand; HEPES pH 7.5; pre-bound ligand present.
Another test has as its target RPA1789 (Rhodopseudomonas palustris, UniProt Q6N8W4). The test can be described thus: X-ray crystal structure. The settings on record: co-crystallisation; SeMet protein; 1.60 Å.
A further test deals with RPB3575 (Rhodopseudomonas palustris, UniProt Q2IU40). The test can be described thus: X-ray crystal structure. To be noted: co-crystallisation; SeMet protein; 1.70 Å.
Test [2] addresses T1, RPD1520. Briefly: fluorescence thermal shift. To be noted: 10 μM protein, 1000 μM ligand; HEPES pH 7.5.

As to `O=C(O)C(=O)c1ccccc1` [BZF, benzoylformic acid], on RPD1520 [1], the KD is on record as 1.50 × 10^-4 ± 0.11 M^-1.

Regarding `O=C(O)/C=C/c1ccc(O)c(O)c1` [CAF, caffeic acid], the dTm result is “(p- coumaric acid, caffeic acid) produce the maximal observed thermal shifts” on BLR7848 and “(p- coumaric acid, caffeic acid) produce the maximal observed thermal shifts” at RPD1889.

In the case of `O=C(O)/C=C/c1ccc(O)cc1` [COU, p-coumaric acid], the X-ray crystal structure result was “Structures for RPA1789 and RPB3575 proteins in complex with p-coumaric acid (COU, 4-hydroxycinammic acid)” at RPA1789; “The structure of RPB3575 with p-coumaric acid (COU)” at RPB3575. The dTm result on BLR7848 is listed as “(p- coumaric acid, caffeic acid) produce the maximal observed thermal shifts”; on RPD1889, “(p- coumaric acid, caffeic acid) produce the maximal observed thermal shifts”.

As to `O=C(O)Cc1ccccc1` [PAA, phenylacetic acid], on RPD1520 [2], the dTm result is reported as “large Tm shifts when phenylacetic acid or hydrocinnamic acid were included”.

As to `O=C(O)CCc1ccccc1` [hydrocinnamic acid], the dTm entry at RPD1520 [2] is listed as “large Tm shifts when phenylacetic acid or hydrocinnamic acid were included”.

(Values after PMC4095797 (Proteins, 2013).)
